Experimental data published in ChEMBL document CHEMBL3217587, “The discovery of N-1 substituted 2-aminobenzimidazoles as zinc-dependent S. aureus biofilm inhibitors” (Medchemcomm, 2012).
The source made the active and inactive calls. The calls are words filed in the database; no cut-off is given here.

What was measured:
Staphylococcus aureus [1] = test: Antimicrobial activity against methicillin-resistant Staphylococcus aureus ATCC 43300 assessed as inhibition of biofilm formation at 8 uM after 24 hrs by crystal violet staining-based microscopy in presence of > 50 uM Zn2+ ion; format: functional, organism-based
Staphylococcus aureus [2] = test: Antimicrobial activity against methicillin-resistant Staphylococcus aureus ATCC BAA-811 after 16 hrs by broth microdilution method; format: functional; settings: ATCC BAA-811, 16 h
Staphylococcus aureus [3] = test: Antimicrobial activity against methicillin-resistant Staphylococcus aureus ATCC 43300 assessed as inhibition of biofilm formation at 8 uM after 24 hrs by crystal violet staining-based microscopy in presence of Mn2+ ion; format: functional, organism-based
Staphylococcus aureus [4] = test: Antimicrobial activity against methicillin-resistant Staphylococcus aureus ATCC BAA-44 after 16 hrs by broth microdilution method; format: functional; settings: ATCC BAA-44, 16 h
Staphylococcus aureus [5] = test: Antimicrobial activity against methicillin-resistant Staphylococcus aureus ATCC BAA-1753 after 16 hrs by broth microdilution method; format: functional; settings: ATCC BAA-1753, 16 h
Staphylococcus aureus [6] = test: Antimicrobial activity against methicillin-resistant Staphylococcus aureus ATCC 43300 assessed as inhibition of biofilm formation at 8 uM after 24 hrs by crystal violet staining-based microscopy in presence of Cu2+ ion; format: functional, organism-based
Staphylococcus aureus [7] = test: Antibiofilm activity against methicillin-resistant Staphylococcus aureus ATCC 43300 assessed as biofilm dispersal at 20 uM after 24 hrs by crystal violet staining-based microscopy; format: functional, organism-based
Staphylococcus aureus [8] = test: Toxicity in methicillin-resistant Staphylococcus aureus ATCC BAA-44 assessed as inhibition of planktonic cell growth at IC50 after 2 to 24 hrs by spectrophotometry; format: organism-based
Staphylococcus aureus [9] = test: Antimicrobial activity against methicillin-resistant Staphylococcus aureus ATCC 700789 after 16 hrs by broth microdilution method; format: functional; settings: ATCC 700789, 16 h
Staphylococcus aureus [10] = test: Antimicrobial activity against methicillin-resistant Staphylococcus aureus ATCC 43300 assessed as inhibition of biofilm formation at 8 uM after 24 hrs by crystal violet staining-based microscopy in presence of 200 uM Zn2+ ion; format: functional
Staphylococcus aureus [11] = test: Antimicrobial activity against methicillin-resistant Staphylococcus aureus ATCC 43300 assessed as inhibition of biofilm formation at 8 uM after 24 hrs by crystal violet staining-based microscopy in presence of Mg2+ ion; format: functional, organism-based
Staphylococcus aureus [12] = test: Antimicrobial activity against methicillin-resistant Staphylococcus aureus ATCC 43300 assessed as inhibition of biofilm formation at 8 uM after 24 hrs by crystal violet staining-based microscopy in presence of Ca2+ ion; format: functional, organism-based
Acinetobacter baumannii = test: Antimicrobial activity against multidrug-resistant Acinetobacter baumannii ATCC BAA-1605 after 16 hrs by broth microdilution method; format: functional; settings: ATCC BAA-1605, 16 h
Staphylococcus aureus [13] = test: Antimicrobial activity against methicillin-resistant Staphylococcus aureus ATCC BAA-1556 after 16 hrs by broth microdilution method; format: functional; settings: ATCC BAA-1556, 16 h
Staphylococcus aureus [14] = test: Antimicrobial activity against methicillin-resistant Staphylococcus aureus ATCC 43300 assessed as inhibition of biofilm formation at 8 uM after 24 hrs by crystal violet staining-based microscopy in presence of Fe2+ ion; format: functional, organism-based
Staphylococcus aureus [15] = test: Antimicrobial activity against methicillin-resistant Staphylococcus aureus ATCC BAA-1685 after 16 hrs by broth microdilution method; format: functional; settings: ATCC BAA-1685, 16 h
Staphylococcus aureus [16] = test: Antimicrobial activity against methicillin-resistant Staphylococcus aureus ATCC BAA-44 assessed as inhibition of biofilm formation after 24 hrs by crystal violet staining-based microscopy; format: functional, organism-based; settings: ATCC BAA-44, 24 h
Pseudomonas aeruginosa = test: Antimicrobial activity against Pseudomonas aeruginosa PA14 after 16 hrs by broth microdilution method; format: functional; settings: PA14, 16 h
Staphylococcus aureus [17] = test: Antimicrobial activity against methicillin-resistant Staphylococcus aureus ATCC 43300 assessed as inhibition of biofilm formation at 8 uM after 24 hrs by crystal violet staining-based microscopy in presence of < 50 uM Zn2+ ion; format: functional
Staphylococcus aureus [18] = test: Antimicrobial activity against methicillin-resistant Staphylococcus aureus ATCC 33591 after 16 hrs by broth microdilution method; format: functional; settings: ATCC 33591, 16 h
Staphylococcus aureus [19] = test: Toxicity in methicillin-resistant Staphylococcus aureus ATCC 43300 assessed as inhibition of planktonic cell growth at IC50 after 2 to 24 hrs by spectrophotometry; format: organism-based
Staphylococcus aureus [20] = test: Antimicrobial activity against methicillin-susceptible Staphylococcus aureus ATCC 29213 after 16 hrs by broth microdilution method; format: functional; settings: ATCC 29213, 16 h
Staphylococcus aureus [21] = test: Antimicrobial activity against methicillin-resistant Staphylococcus aureus ATCC 43300 assessed as inhibition of biofilm formation after 24 hrs by crystal violet staining-based microscopy; format: functional, organism-based; settings: ATCC 43300, 24 h
Staphylococcus aureus [22] = test: Antimicrobial activity against methicillin-resistant Staphylococcus aureus ATCC 43300 after 16 hrs by broth microdilution method; format: functional; settings: ATCC 43300, 16 h

| Compound | inhibition (Staphylococcus aureus [1]) | MIC (Staphylococcus aureus [2]) | inhibition (Staphylococcus aureus [3]) | MIC (Staphylococcus aureus [4]) | MIC (Staphylococcus aureus [5]) | inhibition (Staphylococcus aureus [6]) | Activity (Staphylococcus aureus [7]) | Activity (Staphylococcus aureus [8]) | MIC (Staphylococcus aureus [9]) | inhibition (Staphylococcus aureus [11]) | MIC (Acinetobacter baumannii) | MIC (Staphylococcus aureus [13]) | MIC (Staphylococcus aureus [15]) | IC50 (Staphylococcus aureus [16]) | MIC (Pseudomonas aeruginosa) | MIC (Staphylococcus aureus [18]) | Activity (Staphylococcus aureus [19]) | MIC (Staphylococcus aureus [20]) | IC50 (Staphylococcus aureus [21]) | MIC (Staphylococcus aureus [22]) | also measured |
| --- | --- | --- | --- | --- | --- | --- | --- | --- | --- | --- | --- | --- | --- | --- | --- | --- | --- | --- | --- | --- | --- |
| CCCCCc1ccc(C(=O)Nc2ccc3c(c2)nc(N)n3CCc2ccccc2)cc1.Cl | inactive | 8 µg/mL | Active | 16 µg/mL | 8 µg/mL | Active | inactive | Non-toxic | 16 µg/mL | Active | > 64 µg/mL | 8 µg/mL | 8 µg/mL | 6 µM | > 64 µg/mL | 8 µg/mL | Non-toxic | 8 µg/mL | 4.7 µM | 8 µg/mL | inhibition (INH) (Staphylococcus aureus [10]): 10%; inhibition (Staphylococcus aureus [12]): Active; inhibition (Staphylococcus aureus [14]): Active; inhibition (INH) (Staphylococcus aureus [17]): 70% |
| CCCCCCn1c(N)nc2cc(NC(=O)c3ccc(CCCCC)cc3)ccc21.Cl | inactive | 16 µg/mL | Active | 16 µg/mL | 16 µg/mL | Active | inactive | Non-toxic | 32 µg/mL | Active | > 64 µg/mL | 16 µg/mL | 16 µg/mL | 7.3 µM | > 64 µg/mL | 16 µg/mL | Non-toxic | 16 µg/mL | 4.7 µM | 16 µg/mL | inhibition (Staphylococcus aureus [12]): Active; inhibition (Staphylococcus aureus [14]): Active; inhibition (Staphylococcus aureus [17]): inactive |
| CCCCCCCCn1c(N)nc2cc(NC(=O)c3ccc(CCCCC)cc3)ccc21.Cl | – | 32 µg/mL | – | 64 µg/mL | 64 µg/mL | – | inactive | Non-toxic | 64 µg/mL | – | > 64 µg/mL | > 64 µg/mL | 64 µg/mL | 6.8 µM | > 64 µg/mL | 64 µg/mL | Non-toxic | 64 µg/mL | 9.3 µM | 64 µg/mL | – |
| CCCCCc1ccc(C(=O)Nc2ccc3c(c2)nc(N)n3CCc2ccc(OC)cc2)cc1.Cl | – | 16 µg/mL | – | 16 µg/mL | 16 µg/mL | – | inactive | Toxic | 16 µg/mL | – | > 64 µg/mL | 8 µg/mL | 8 µg/mL | 10.4 µM | > 64 µg/mL | 16 µg/mL | Toxic | 16 µg/mL | 6.2 µM | 8 µg/mL | – |
| CCCCCc1ccc(C(=O)Nc2ccc3c(c2)nc(N)n3CCCCc2c[nH]c3ccccc23)cc1.Cl | – | 64 µg/mL | – | 32 µg/mL | 64 µg/mL | – | inactive | Toxic | 32 µg/mL | – | > 64 µg/mL | 32 µg/mL | 32 µg/mL | 7.9 µM | > 64 µg/mL | 32 µg/mL | Toxic | 64 µg/mL | 5.7 µM | 32 µg/mL | – |
